In the supplement of paper PMC10307832:

Columns and labels:
Assay in all cases: relative viability (nuclei count vs DMSO), 5 days (fraction); higher = more cells survive
Veliparib + Vorinostat = compound: C[C@]1(c2nc3c(C(N)=O)cccc3[nH]2)CCCN1 [Veliparib] + O=C(CCCCCCC(=O)Nc1ccccc1)NO [Vorinostat] (partner 1 µM)
How it was run: (§1)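 After 5 days of treatment, lung cancer cells in 1536-well plates were fixed and stained in a single step (final 0.05% Triton X-100, 1% formaldehyde, 1 ug/ml Hoechst) and their nuclei counted on 4× images. Treatment had been applied by pin tool the day after seeding as one drug alone or as a fixed anchor-drug dose with five library-drug doses (not always all listed) in √10 steps. Relative viability is the nuclei count of treated wells divided by that of vehicle wells, and values are medians of duplicate plates.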

Veliparib + Decitabine = compound: C[C@]1(c2nc3c(C(N)=O)cccc3[nH]2)CCCN1 [Veliparib] + Nc1ncn([C@H]2C[C@H](O)[C@@H](CO)O2)c(=O)n1 [Decitabine] (partner 2 µM)
How it was run: as §1

Veliparib + Dasatinib = compound: C[C@]1(c2nc3c(C(N)=O)cccc3[nH]2)CCCN1 [Veliparib] + Cc1nc(Nc2ncc(C(=O)Nc3c(C)cccc3Cl)s2)cc(N2CCN(CCO)CC2)n1 [Dasatinib] (partner 0.075 µM)
How it was run: as §1

[1] = compound: COC1=CC=C(C=C1)CN2C=CC3=C2C=C(C=C3)C(=O)NO + O=C(CCCCCCC(=O)Nc1ccccc1)NO [Vorinostat] (partner 1 µM)
How it was run: as §1

Row | Cell Line | relative viability (Veliparib + Vorinostat; first compound 0.02 µM) | relative viability (Veliparib + Vorinostat; first compound 0.06325 µM) | relative viability (Veliparib + Vorinostat; first compound 0.2 µM) | relative viability (Veliparib + Vorinostat; first compound 0.6325 µM) | relative viability (Veliparib + Vorinostat; first compound 2 µM) | relative viability (Veliparib + Decitabine; first compound 0.02 µM) | relative viability (Veliparib + Decitabine; first compound 0.06325 µM) | relative viability (Veliparib + Decitabine; first compound 0.2 µM) | relative viability (Veliparib + Decitabine; first compound 0.6325 µM) | relative viability (Veliparib + Decitabine; first compound 2 µM) | relative viability (Veliparib + Dasatinib; first compound 0.02 µM) | relative viability (Veliparib + Dasatinib; first compound 0.06325 µM) | relative viability (Veliparib + Dasatinib; first compound 0.2 µM) | relative viability (Veliparib + Dasatinib; first compound 0.6325 µM) | relative viability (Veliparib + Dasatinib; first compound 2 µM) | relative viability ([1]; first compound 0.08 µM) | relative viability ([1]; first compound 0.253 µM) | relative viability ([1]; first compound 0.8 µM) | relative viability ([1]; first compound 2.53 µM) | relative viability ([1]; first compound 8 µM)
1 | NCI-H596 | 0.659 | 0.55 | 0.498 | 0.624 | 0.55 | 1.14 | 1 | 0.969 | 0.814 | 0.965 | 0.611 | 0.571 | 0.641 | 0.521 | 0.633 | 0.587 | 0.536 | 0.589 | 0.708 | 0.778
2 | PC-3 [JPC-3] | 0.68 |  | 1.02 | 1.03 | 0.922 | 0.766 |  | 0.85 | 0.763 | 0.741 | 1.04 | 0.93 | 0.967 | 0.985 | 0.975 | 0.786 |  | 0.668 | 0.756 | 0.587
3 | NCI-H23 | 0.633 | 0.45 | 0.544 | 0.543 | 0.56 | 0.318 | 0.289 | 0.306 | 0.296 | 0.334 | 0.622 | 0.71 | 0.753 | 0.75 | 0.87 | 0.338 | 0.649 | 0.637 | 0.584 | 0.461
4 | SK-MES-1 | 1.19 | 1.08 | 1.09 | 1.04 | 1.07 | 0.364 | 0.293 | 0.341 | 0.324 | 0.337 | 0.39 | 0.34 | 0.432 | 0.397 | 0.484 | 1.04 | 1.14 | 1.04 | 1.08 | 1.05
5 | NCI-H1651 | 0.557 | 0.551 | 0.513 | 0.464 | 0.504 | 0.549 | 0.43 | 0.348 | 0.358 | 0.32 | 0.296 | 0.403 | 0.383 | 0.4 | 0.348 | 0.52 | 0.512 | 0.498 | 0.464 | 0.475
6 | SK-LU-1 | 0.946 | 0.837 | 0.906 | 0.722 | 0.754 | 0.634 | 0.663 | 0.58 | 0.583 | 0.485 | 0.185 | 0.173 | 0.175 | 0.17 | 0.187 | 0.527 | 0.753 | 0.771 | 0.718 | 0.691
7 | NCI-H727 | 1.11 | 0.948 | 1.1 | 1.14 | 1.04 | 0.865 | 0.758 | 0.856 | 0.706 | 0.865 | 0.267 | 0.365 | 0.305 | 0.47 | 0.331 | 1.13 | 1.17 | 1.22 | 1.25 | 1.25
8 | NCI-H3122 | 0.906 | 1.05 | 0.972 | 0.929 | 1.07 | 0.393 | 0.386 | 0.361 | 0.326 | 0.395 | 0.674 | 0.792 | 0.84 | 0.766 | 0.572 | 0.752 | 1.08 | 1.01 | 1.17 | 0.982
9 | HOP-62 | 0.557 | 0.527 | 0.593 | 0.539 | 0.68 | 0.221 | 0.198 | 0.164 | 0.197 | 0.251 | 0.634 | 0.549 | 0.705 | 0.648 | 0.651 | 0.39 | 0.666 | 0.528 | 0.748 | 0.531
10 | LC-2-ad | 0.434 | 0.656 | 0.717 | 0.655 | 0.788 | 0.775 | 0.801 | 0.706 | 0.673 | 0.763 |  | 0.423 | 0.669 | 0.556 | 0.388 | 0.58 | 0.742 | 0.748 | 0.701 | 0.592
11 | EKVX |  | 0.745 | 0.789 | 0.626 | 0.66 |  | 0.319 | 0.364 | 0.338 | 0.294 |  | 0.658 | 0.66 | 0.532 | 0.48 | 0.646 | 0.843 | 0.803 | 0.897 | 0.672
12 | LCLC-103H | 0.846 | 0.726 | 0.819 | 0.749 | 0.77 | 0.809 | 0.662 | 0.667 | 0.705 | 0.714 | 0.5 | 0.469 | 0.449 | 0.495 | 0.482 | 0.647 | 0.832 | 0.868 | 0.748 | 0.613
13 | LU99A | 0.513 | 0.477 | 0.396 | 0.441 | 0.402 | 1.01 | 0.875 | 0.932 | 0.825 | 0.866 | 0.592 | 0.51 | 0.612 | 0.517 | 0.431 |  | 0.504 | 0.581 | 0.418 | 0.352
14 | CAL-12T | 0.695 | 0.834 | 0.729 | 0.589 | 0.886 |  |  |  |  |  | 0.287 | 0.354 | 0.386 | 0.308 | 0.468 | 0.562 | 0.855 | 0.821 | 0.719 | 0.787
15 | NCI-H1792 |  |  |  |  |  | 0.463 | 0.381 | 0.397 | 0.263 | 0.26 | 0.79 | 0.79 | 0.822 | 0.707 | 0.717 |  |  |  |  | 
16 | A549 |  |  |  |  |  | 0.202 | 0.137 | 0.0868 | 0.106 | 0.0789 |  |  |  |  |  |  |  |  |  | 
17 | NCI-H1563 |  |  |  |  |  |  |  |  |  |  | 0.462 | 0.474 | 0.4 | 0.491 | 0.482 |  |  |  |  | 
18 | HCC-44 | 1.07 | 1.03 | 1.07 | 1.06 | 1.15 | 0.941 | 0.797 | 0.907 | 0.857 | 0.902 |  |  |  |  |  | 1.09 | 1.06 | 1.18 | 1.14 | 1.12
19 | NCI-H2228 | 0.585 | 0.734 | 0.585 | 0.455 | 0.469 |  |  |  |  |  | 0.51 | 0.509 | 0.508 | 0.357 | 0.467 | 0.496 | 0.869 | 0.639 | 0.431 | 0.826
20 | NCI-H1623 |  |  |  |  |  |  |  |  |  |  |  | 0.458 | 0.598 | 0.524 | 0.462 |  |  |  |  | 
